Measurements as given in US10154667B2, “Broadleaf crop control with 6-arylpicoline carboxylic acids, 2-arylpyrimidine carboxylic acids, or salts or esters thereof” (Dow AgroSciences LLC, priority 2013, dated 2018).
Like-named read-outs stand apart in the source and are kept apart here.

Assays:
Type in all cases: in vivo, Glycine max
[1] = tested on: ROUNDUP READY soybeans (GLXMA); experiment: Field evaluation with various herbicides, 46 days after treatment; settings: 46 Days After Treatment
Description: (§1) The average percent visual control of ROUNDUP READY® soybeans (GLXMA) 46 days after treatment with various herbicides with standard formulation in comparison with compound of Formula (IV) at specified rates are provided in Table 6 below. The data was the result of conducting factorial replicated field trials (4 trials) by applying the compositions at a spray pressure of 300 kPa and a spray volume of 200 L/ha. The treated plots and control plots were visually rated blind at the specified dates after application. Ratings were based on a scale of 0-100%, as discussed above, wherein 0% indicates complete growth of the undesired vegetation and 100% indicates complete prevention/eradication of the undesired vegetation.

[2] = tested on: ROUNDUP READY soybeans (GLXMA); experiment: Field evaluation with various herbicides, 30 days after treatment; settings: 30 Days After Treatment
Description: as §1, with “The” for “The average percent visual control of ROUNDUP READY® soybeans (GLXMA) 46 days after treatment with various herbicides with standard formulation in comparison with compound of Formula (IV) at specified rates are provided in Table 6 below. The”, “(3” for “(4”

[3] = tested on: Maverick GLXMA (conventional soybean); experiment: Greenhouse evaluation of broadleaf volunteer crop control, Maverick soybean; settings: Glycine max, 504 h, read-out: Average Percent Crop Control after Treatment, Maverick GLXMA
Protocol: (§2) Test plants were grown in METRO-MIX® 360 (SunGro Horticulture, Bellevue, Wash.) in 132.7 square centimeters (cm^2) plastic pots for 7-21 days in a greenhouse with an approximate 15 hour (h) photoperiod which was maintained at about 23-29° C. during the day and 22-28° C. during the night. Plants were grown to the 2 to 3 leaf stage prior to applications. Both conventional soybean crops varieties, Maverick and Resnick, and herbicide resistant (HT) varieties AAD12, AAD1, and ROUNDUP® ready soybean crops were treated.
(§3) A weighed amount, determined by the highest rate to be tested, of each test compound was placed in a 25 milliliter (mL) glass vial and was dissolved in 4 mL of a 97:3 v/v (volume/volume) mixture of acetone and dimethyl sulfoxide (DMSO), which will be referred to as General Purpose Solvent (GPS), to obtain concentrated stock solutions. […] The concentrated stock solutions obtained were diluted with 20 mL of an aqueous mixture containing water, GPS, isopropyl alcohol, ATPLUS® 411F crop oil concentrate, and TRITON® X-155 surfactant in a 46:42:12:1.0:0.02 v/v ratio to obtain spray solutions containing the highest application rates. Additional application rates were obtained by serial dilution of 12 mL of the high rate solution into a solution containing 2 mL of 97:3 v/v (volume/volume) mixture of acetone and dimethyl sulfoxide (DMSO) and 10 mL of an aqueous mixture containing water, GPS, isopropyl alcohol, ATPLUS® 411F crop oil concentrate, and TRITON® X-155 surfactant in a 46:42:12:1.0:0.02 v/v ratio to obtain 1/2X, 1/4X, 1/8X and 1/16X rates of the high rate (X). Compound requirements are based upon a 12 mL application volume at a rate of 187 L/ha. Formulated compounds were applied to the plant material with an overhead Mandel track sprayer equipped with 8002E nozzles calibrated to deliver 187 L/ha over an application area of 0.503 square meters (m^2) at a spray height of 18 inches (43 cm) above the average plant canopy height. Control plants were sprayed in the same manner with the solvent blank. The treated plants and control plants were placed in a greenhouse as described above and watered by sub-irrigation to prevent wash-off of the test compounds. After 21 days, the condition of the test plants as compared with that of the control plants was determined visually and scored on a scale of 0 to 100 percent where 0 corresponds to no injury and 100 corresponds to complete kill, and results are listed in Table 1 along with active ingredients and their respective formulations. Each score in Table 1 represents an average obtained from results of three representative experiments.
(§4) Additional formulations with different 6-arylpicolinates were tested in the greenhouse on Maverick and RoundUp-ready soybean crops using the procedure described above. Each score in Table 2 represents an average obtained from results of three representative experiments.

[4] = tested on: Resnick GLXMA (conventional soybean); experiment: Greenhouse evaluation of broadleaf volunteer crop control, Resnick soybean; settings: 2 to 3 leaf stage, after 21 days, 0 no injury, 100 complete kill
Protocol: as §2, §3

[5] = tested on: AAD1 GLXMA (HT variety soybean); experiment: Greenhouse evaluation of broadleaf volunteer crop control, AAD1 soybean; settings: 2 to 3 leaf stage, after 21 days, 0 no injury, 100 complete kill
Protocol: as §2, §3

[6] = tested on: AAD12 GLXMA (HT variety soybean); experiment: Greenhouse evaluation of broadleaf volunteer crop control, AAD12 soybean; settings: 2 to 3 leaf stage, after 21 days, 0 no injury, 100 complete kill
Protocol: as §2, §3

[7] = tested on: RoundUp Ready GLXMA (HT variety soybean); experiment: Greenhouse evaluation of broadleaf volunteer crop control, RoundUp ready soybean; settings: Glycine max, 504 h, greenhouse, 2 to 3 leaf stage, after 21 days, 0 no injury, 100 complete kill, read-out: Average Percent Crop Control after Treatment, RoundUp Ready GLXMA
Protocol: as §2, §3, §4

| Structure (SMILES) | Average Percent Crop Control after Treatment, Resnick GLXMA ([4]; 1.1 g ae/ha) [%] | Average Percent Crop Control after Treatment, Resnick GLXMA ([4]; 2.2 g ae/ha) [%] | Average Percent Crop Control after Treatment, Resnick GLXMA ([4]; 4.4 g ae/ha) [%] | Average Percent Crop Control after Treatment, Resnick GLXMA ([4]; 8.75 g ae/ha) [%] | Average Percent Crop Control after Treatment, Resnick GLXMA ([4]; 17.5 g ae/ha) [%] | Average Percent Crop Control after Treatment, AAD1 GLXMA ([5]; 2.2 g ae/ha) [%] | Average Percent Crop Control after Treatment, AAD1 GLXMA ([5]; 4.4 g ae/ha) [%] | Average Percent Crop Control after Treatment, AAD1 GLXMA ([5]; 8.75 g ae/ha) [%] | Average Percent Crop Control after Treatment, AAD1 GLXMA ([5]; 17.5 g ae/ha) [%] | Average Percent Crop Control after Treatment, AAD12 GLXMA ([6]; 1.1 g ae/ha) [%] | Average Percent Crop Control after Treatment, AAD12 GLXMA ([6]; 2.2 g ae/ha) [%] | Average Percent Crop Control after Treatment, AAD12 GLXMA ([6]; 4.4 g ae/ha) [%] | Average Percent Crop Control after Treatment, AAD12 GLXMA ([6]; 8.75 g ae/ha) [%] | Average Percent Crop Control after Treatment, AAD12 GLXMA ([6]; 17.5 g ae/ha) [%] | also measured |
| --- | --- | --- | --- | --- | --- | --- | --- | --- | --- | --- | --- | --- | --- | --- | --- |
| COc1nc(C)nc(NC(=O)NS(=O)(=O)c2cc(I)ccc2C(=O)O)n1 [Iodosulfuron] |  |  |  |  |  |  |  |  |  |  |  |  |  |  | % Crop Control ([1]; 3.5 g ai/Ha): 90% |
| COc1nc(C)nc(=NC(=O)NS(=O)(=O)c2ccccc2C(=O)O)[nH]1 [Metsulfuron] |  |  |  |  |  |  |  |  |  |  |  |  |  |  | % Crop Control ([2]; 6 g ai/Ha + 1% J'Oil): 96%; % Crop Control ([2]; 6 g ai/Ha): 89.3%; % Crop Control ([1]; 6 g ai/Ha): 98.3% |
| C[n+]1ccc(-c2cc[n+](C)cc2)cc1 [Paraquat] |  |  |  |  |  |  |  |  |  |  |  |  |  |  | % Crop Control ([2]; 300 g ai/Ha): 61.7%; % Crop Control ([1]; 300 g ai/Ha): 85% |
| COc1cc(OC)n2nc(NS(=O)(=O)c3c(C(F)(F)F)ccnc3OC)nc2n1 [Pyroxsulam] |  |  |  |  |  |  |  |  |  |  |  |  |  |  | % Crop Control ([1]; 18 g ai/Ha): 98.3% |
| COc1c(Cl)ccc(-c2nc(C(=O)O)c(Cl)c(N)c2F)c1F [drawing 11] | 83 | 92 | 100 | 100 | 100 | 87 | 100 | 100 | 100 | 85 | 93 | 100 | 100 | 100 | pest or weed control at 1.1 g/ha ([3]; 1.1 g ae/ha, greenhouse, 2 to 3 leaf stage, after 21 days, 0 no injury, 100 complete kill): 87%; pest or weed control at 2.2 g/ha ([3]; 2.2 g ae/ha, greenhouse, 2 to 3 leaf stage, after 21 days, 0 no injury, 100 complete kill): 95%; pest or weed control at 4.4 g/ha ([3]; 4.4 g ae/ha, greenhouse, 2 to 3 leaf stage, after 21 days, 0 no injury, 100 complete kill): 100%; pest or weed control at 8.75 g/ha ([3]; 8.75 g ae/ha, greenhouse, 2 to 3 leaf stage, after 21 days, 0 no injury, 100 complete kill): 100%; pest or weed control at 17.5 g/ha ([3]; 17.5 g ae/ha, greenhouse, 2 to 3 leaf stage, after 21 days, 0 no injury, 100 complete kill): 100%; pest or weed control at 2.2 g/ha ([7]; 2.2 g ae/ha): 83%; pest or weed control at 4.4 g/ha ([7]; 4.4 g ae/ha): 93%; pest or weed control at 8.75 g/ha ([7]; 8.75 g ae/ha): 100%; pest or weed control at 17.5 g/ha ([7]; 17.5 g ae/ha): 100% |
| COc1c(Cl)ccc(-c2cc(N)c(Cl)c(C(=O)[O-])n2)c1F.[K+] [drawing 12] | 99 | 100 | 100 | 100 | 100 | 100 | 100 | 100 | 100 | 100 | 100 | 100 | 100 | 100 | pest or weed control at 1.1 g/ha [3]: 97%; Average Percent Crop Control after Treatment, AAD1 GLXMA ([5]; 1.1 g ae/ha): 100% |
